The record followed here is publication PMC2667100 (Molecular and cellular endocrinology, 2008).

The test system of assay [1] is MCF-7 Tet-off 3β-HSD1 aromatase cells. Put plainly: Inhibition of DHEA-stimulated proliferation. The assay is classed as cell-based, human. The note with it: for fold higher affinity, 3β-HSD1 cells relative to 3β-HSD2 cells (IC50): ratio of proliferation IC50 values.
In assay [2] the test system is MCF-7 Tet-off 3β-HSD2 aromatase cells. In words: Inhibition of DHEA-stimulated proliferation. Type of assay: cell-based, human. As to conditions: DHEA 5 nM, concentration-dependent.
The target of assay [3] is T1, purified human 3β-HSD1 (Homo sapiens, UniProt P14060). In words: Substrate and cofactor kinetics of the isomerase activity. The assay is classed as biochemical. As to conditions: 27°C, pH 7.4.
T1 sequence (P14060 whole entry): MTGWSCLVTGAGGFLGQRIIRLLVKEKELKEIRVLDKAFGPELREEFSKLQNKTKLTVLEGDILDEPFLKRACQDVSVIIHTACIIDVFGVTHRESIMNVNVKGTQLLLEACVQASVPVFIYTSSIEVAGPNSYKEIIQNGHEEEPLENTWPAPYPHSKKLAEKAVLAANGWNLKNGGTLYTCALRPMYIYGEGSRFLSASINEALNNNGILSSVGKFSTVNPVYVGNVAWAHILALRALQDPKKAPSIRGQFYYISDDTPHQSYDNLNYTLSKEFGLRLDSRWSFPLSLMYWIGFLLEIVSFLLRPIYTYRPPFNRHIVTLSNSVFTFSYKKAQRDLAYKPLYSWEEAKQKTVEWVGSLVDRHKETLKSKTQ
Assay [4] concerns the target T2, purified human P195R-2 mutant of 3β-HSD2 (Homo sapiens, UniProt P26439, P195R).
T2 sequence (P26439 1-372 P195R): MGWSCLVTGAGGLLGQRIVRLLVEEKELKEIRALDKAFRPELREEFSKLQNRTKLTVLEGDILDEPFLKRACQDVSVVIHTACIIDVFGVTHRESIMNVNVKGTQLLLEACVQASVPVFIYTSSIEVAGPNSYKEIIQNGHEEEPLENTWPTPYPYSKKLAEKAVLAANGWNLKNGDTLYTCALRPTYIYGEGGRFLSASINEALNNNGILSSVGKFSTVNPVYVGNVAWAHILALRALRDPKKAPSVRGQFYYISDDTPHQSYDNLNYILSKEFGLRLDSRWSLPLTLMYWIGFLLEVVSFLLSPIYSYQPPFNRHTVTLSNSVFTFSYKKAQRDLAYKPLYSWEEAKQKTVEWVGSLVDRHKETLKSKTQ
The assay is described as above. The assay is classed as biochemical. As to conditions: 27°C, pH 7.4.

Assay [5] concerns the target T3, purified human 3β-HSD2 (Homo sapiens, UniProt P26439).
T3 sequence (P26439 1-372): T2 sequence (P26439 1-372 P195R) with R195P
The assay is described as above. As to conditions: 27°C, pH 7.4. Type of assay: biochemical.

In assay [6] the target is T2, purified human P195R-2 mutant of 3β-HSD2. In words: Inhibition kinetics of purified enzyme. Type of assay: biochemical.
Assay [7] addresses T1, purified human 3β-HSD1. Put plainly: Inhibition kinetics of purified enzyme. The assay is classed as biochemical.
The target of assay [8] is T3, purified human 3β-HSD2. In words: Inhibition kinetics of purified enzyme. The assay is classed as biochemical. As to conditions: for mode of inhibition: Dixon analysis.
Assay [9] deals with MCF-7 Tet-off 3β-HSD1 aromatase cells. In words: Stimulation of proliferation. Type of assay: cell-based, human. As to conditions: for stimulation of cell growth: no dox; for EC50: Homo sapiens, MCF7, 240 h, read-out: EC50, stimulation of growth.
In assay [10] the test system is MCF-7 Tet-off 3β-HSD2 aromatase cells. In words: Stimulation of proliferation. Type of assay: cell-based, human. As to conditions: for stimulation of cell growth: no dox; for EC50: Homo sapiens, MCF7, 240 h, read-out: EC50, stimulation of growth.
Assay [11] deals with T3, purified human 3β-HSD2. Put plainly: Substrate and cofactor kinetics of the 3β-HSD activity. The note with it: 27°C, pH 7.4. The assay is classed as biochemical.
For assay [12], the system named is MCF-7 Tet-off 3β-HSD1 and 3β-HSD2 aromatase cells. In words: DHEA stimulation of proliferation, mean over both recombinant cell lines. As to conditions: Homo sapiens, MCF7, read-out: mean EC50, stimulation of proliferation. The assay is classed as cell-based.
The target in assay [13] is T2, purified human P195R-2 mutant of 3β-HSD2. In words: Substrate and cofactor kinetics of the 3β-HSD activity. The assay is classed as biochemical.
Assay [14] deals with T1, purified human 3β-HSD1. Described as above. As to conditions: 27°C, pH 7.4. The assay is classed as biochemical.
In another assay the test system is MCF-7 cells. In words: Proliferation of MCF-7 cells in the absence of DHEA substrate. The assay is classed as cell-based, human.
Where [15] appears, read: 5-androstene-3,17-dione 20–100 μM, NADH 0.05 mM.
Where [16] appears, read: DHEA 8.0 or 20.0 μM, NAD+ 0.2 mM, 27 °C, pH 7.4.
[17] abbreviates: NADH 0–50 μM, 5-androstene-3,17-dione 100 μM.
The mark [18] stands for this setting: read-out: Km, isomerase cofactor (allosteric activator), NADH 0–50 μM, 5-androstene-3,17-dione 100 μM.
The mark [19] stands for this setting: read-out: Km, 3β-HSD cofactor, NAD+ 10–200 μM, DHEA 100 μM.

Where a chain is given by its changes, count along the chain named. Where two headings read alike, the source gives them in different places.

In the case of 4-hydroxy-tamoxifen, the “effect on DHEA-stimulated proliferation” value in assay [1] (DHEA 5 nM, concentration-dependent) was “decreases the DHEA-stimulated proliferation”; in assay [2], “decreases the DHEA-stimulated proliferation”.
Usually Km stands for the concentration of substrate that gives half-maximal velocity. Take `C[C@]12CCC(=O)CC1=CC[C@@H]1[C@@H]2CC[C@]2(C)C(=O)CC[C@@H]12` [5-androstene-3,17-dione]: the “kcat, isomerase substrate” value at purified human 3β-HSD1 [3] (setting [15]) turned out to be 0.837 ± 0.0333 s⁻¹; in assay [4] (setting [15]) it was 2.18 ± 0.163 s⁻¹; at purified human 3β-HSD2 [5] (setting [15]), 1.36 ± 0.1 s⁻¹. Also, in [4] (read-out: Km, isomerase substrate, 5-androstene-3,17-dione 20–100 μM, NADH 0.05 mM), the Michaelis-Menten constant (Km) was found to be 119 ± 5 µM.
A word on the Ki: it is a measure of affinity in units of concentration, obtained from inhibition or displacement. Read a low Ki as a stronger hold on the target. For the compound `CC(=O)OC1CCC2C3CCC45OC4C(O)=C(C#N)CC5(C)C3CCC12C` (stereo not drawn) [17β-acetoxy-trilostane], the inhibition constant (Ki) in assay [6] (setting [16]) came out at 390 ± 30 nM; at purified human 3β-HSD1 [7] (DHEA 4.0 or 8.0 μM, NAD+ 0.2 mM, 27 °C, pH 7.4) it was 430 ± 30 nM; at purified human 3β-HSD2 [8] (setting [16]) it was 1590 ± 100 nM. Besides, the mode of inhibition entry at purified human 3β-HSD2 [8] is “non-competitive”.
As to `C[C@]12CCC(=O)C=C1CC[C@@H]1[C@@H]2CC[C@]2(C)C(=O)CC[C@@H]12` [Androstenedione, androstenedione], the “stimulation of cell growth” value in [9] and in assay [10] was “stimulates the proliferation” throughout.
Consider `C[C@]12CC[C@H](O)CC1=CC[C@@H]1[C@@H]2CC[C@]2(C)C(=O)CC[C@@H]12` [DHEA, Dehydroepiandrosterone], for which the “kcat, 3β-HSD substrate” value on purified human 3β-HSD2 [11] (DHEA 2–100 μM, NAD+ 0.2 mM) stood at 0.115 ± 0.0083 s⁻¹; in [13] (DHEA 2–100 μM, NAD+ 0.2 mM, 27°C, pH 7.4), 0.158 ± 0.012 s⁻¹; on purified human 3β-HSD1 [14] (DHEA 2–100 μM, NAD+ 0.2 mM), 0.055 ± 0.0033 s⁻¹. In addition, the “stimulation of cell growth” value in assay [9] and in assay [10] was “stimulated” each time. For the same compound, the EC50 in assay [12] came to 5 nM. In assay [13] (ratio of Km values), the “fold higher affinity for substrate, P195R-2 vs wild-type 3β-HSD2 (Km)” value is 3.6 fold. Besides, the Michaelis constant (Km) in [13] (read-out: Km, 3β-HSD substrate, DHEA 2–100 μM, NAD+ 0.2 mM, 27°C, pH 7.4) worked out at 13.3 ± 2.5 µM.
Turning to `C[C@]12CC[C@H](OS(=O)(=O)O)CC1=CC[C@@H]1[C@@H]2CC[C@]2(C)C(=O)CC[C@@H]12` [DHEA-S, dehydroepiandrosterone-sulfate], the “stimulation of cell growth” value in assay [9] and in assay [10] was “stimulated” throughout.
As to `NC(=O)C1=CN([C@@H]2O[C@H](COP(=O)(O)OP(=O)(O)OC[C@H]3O[C@@H](n4cnc5c(N)ncnc54)[C@H](O)[C@@H]3O)[C@@H](O)[C@H]2O)C=CC1` [NADH], the entries for the “kcat, isomerase cofactor (allosteric activator)” value (on purified human 3β-HSD1 [3] (setting [17]); in assay [4] (setting [17]); on purified human 3β-HSD2 [5] (setting [17])) were 0.75 ± 0.03 s⁻¹, 1.49 ± 0.0967 s⁻¹ and 1.65 ± 0.107 s⁻¹, respectively. Moreover, the results for the Km (at purified human 3β-HSD1 [3] (setting [18]); in [4] (setting [18]); at purified human 3β-HSD2 [5] (setting [18])) were 4.6 ± 0.2 µM, 10 ± 0.2 µM and 12.6 ± 0.9 µM, respectively.
On to `NC(=O)c1ccc[n+]([C@@H]2O[C@H](COP(=O)([O-])OP(=O)(O)OC[C@H]3O[C@@H](n4cnc5c(N)ncnc54)[C@H](O)[C@@H]3O)[C@@H](O)[C@H]2O)c1` [NAD^+], for which the “kcat, 3β-HSD cofactor” value at purified human 3β-HSD2 [11] (NAD+ 10–200 μM, DHEA 100 μM) was found to be 0.118 ± 0.01 s⁻¹; in assay [13] (NAD+ 10–200 μM, DHEA 100 μM, 27°C, pH 7.4) it was 0.153 ± 0.005 s⁻¹; on purified human 3β-HSD1 [14] (NAD+ 10–200 μM, DHEA 100 μM), 0.0583 ± 0.0033 s⁻¹. Moreover, the Km at purified human 3β-HSD2 [11] (setting [19]) is 86.3 ± 5.6 µM; in assay [13] (read-out: Km, 3β-HSD cofactor, NAD+ 10–200 μM, DHEA 100 μM, 27°C, pH 7.4), 56.4 ± 3.2 µM; on purified human 3β-HSD1 [14] (setting [19]), 34.1 ± 1.7 µM.
On to `C[C@]1(O)CC[C@H]2[C@@H]3CC[C@@]45O[C@]4(C)C(O)=C(C#N)C[C@]5(C)[C@H]3CC[C@@]21C` [epostane], for which the “fold higher affinity, 3β-HSD1 cells relative to 3β-HSD2 cells (IC50)” value in [1] is on record as 12 fold. For the same compound, the “ER-agonist activity (stimulation of proliferation)” value (“ER-agonist activity” for short) in the assay with MCF-7 cells is “none of these compounds has ER-agonist activity”.
Consider `C[C@]12CC[C@@H]3c4ccc(O)cc4CC[C@H]3[C@@H]1CC[C@@H]2O` [estradiol], for which the EC50 in assay [9] came out at 0.24 nM; in assay [10], 0.32 nM.
The corresponding values for `C[C@]12CC[C@@H]3c4ccc(O)cc4CC[C@H]3[C@@H]1CCC2=O` [estrone] are 0.39 nM and 0.34 nM.
Turning to `N#Cc1ccc(C(c2ccc(C#N)cc2)n2cncn2)cc1` [letrozole], the “ER-agonist activity” value in the assay with MCF-7 cells is given as “none of these compounds has ER-agonist activity”.
For `C[C@]12CC[C@H]3[C@@H](CC[C@@]45O[C@@H]4C(O)=C(C#N)C[C@]35C)[C@@H]1CC[C@@H]2O` [trilostane, 2α-cyano-4α,5α-epoxy-17β-ol-androstane-3-one], the Ki in assay [6] amounted to 190 ± 20 nM; at purified human 3β-HSD1 [7] it was 100 ± 10 nM; on purified human 3β-HSD2 [8], 1600 ± 100 nM. Also, in [1], the “fold higher affinity, 3β-HSD1 cells relative to 3β-HSD2 cells (IC50)” value was determined as 16 fold. Moreover, the “fold higher affinity for 3β-HSD1 than 3β-HSD2 (Ki)” value at purified human 3β-HSD1 [7] (purified enzymes) is 16 fold. In addition, in the assay with MCF-7 cells, the “ER-agonist activity” value is reported as “none of these compounds has ER-agonist activity”. In addition, the mode of inhibition result at purified human 3β-HSD2 [8] was “noncompetitively”.
